Drawing on paper PMC5963010, “Characterization of a novel thermostable and xylose-tolerant GH 39 β-xylosidase from Dictyoglomus thermophilum” (BMC Biotechnology, 2018), this text covers inhibition for one compound.

Usually inhibition stands for how much of the control response was suppressed.

In the experiment the target is T1, Xln-DT (Dictyoglomus thermophilum, UniProt B5YB78).
T1 construct: gene DICTH_1792; full-length ORF, 502 aa (1509 bp), in pET-20b (BamHI/XhoI), E. coli BL21(DE3); tag not described
T1 sequence (B5YB78 1-502): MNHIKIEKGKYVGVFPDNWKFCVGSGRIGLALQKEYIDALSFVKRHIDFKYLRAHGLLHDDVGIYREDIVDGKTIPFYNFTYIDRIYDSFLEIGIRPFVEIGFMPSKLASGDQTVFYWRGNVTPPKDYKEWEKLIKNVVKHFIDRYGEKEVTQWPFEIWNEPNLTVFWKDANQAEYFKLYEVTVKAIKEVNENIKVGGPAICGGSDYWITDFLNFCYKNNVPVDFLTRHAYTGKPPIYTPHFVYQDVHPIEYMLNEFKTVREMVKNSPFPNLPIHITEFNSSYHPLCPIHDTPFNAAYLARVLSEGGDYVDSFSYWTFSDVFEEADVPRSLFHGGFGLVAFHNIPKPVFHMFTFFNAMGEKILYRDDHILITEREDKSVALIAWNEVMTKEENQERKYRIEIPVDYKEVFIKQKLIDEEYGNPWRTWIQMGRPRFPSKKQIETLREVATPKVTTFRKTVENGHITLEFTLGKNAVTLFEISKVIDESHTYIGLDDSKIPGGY
Kind of experiment: pNPX hydrolysis assay with added xylose. The class given is biochemical.

For the compound `OC1OC[C@@H](O)[C@H](O)[C@H]1O` (stereo partly shown) [xylose], the inhibition at 3 M turned out to be 40%.
